Earlier results as cited in patent US20120289565A1, “COMBINATIONS OF TOLTERODINE AND SALIVARY STIMULANTS FOR THE TREATMENT OF OVERACTIVE BLADDER” (TheraVida, Inc., priority 2011, published 2012).

Settings: 5 mg of pilocarpine

Structure (SMILES): CC[C@@H]1C(=O)OC[C@@H]1Cc1cncn1C [pilocarpine]
- time of maximum saliva output after administration: about 30 minutes
